# Where two headings read alike, the source gives them in different places.
# Assays:
# [1] = Stability against DHP-I (pig); assay type: in vitro ADME; details: kidney dhp-i, 100 μg (potency)/ml, 37° C., pH 7.0, read-out: residue (%) of the carbapenem derivative
# Procedure: (§1) The stability of representative compounds, among the novel carbapenem derivatives of the present invention, against kidney dehydropeptidase-I (DHP-I) of a pig and a mouse was measured, and the residue (%) of the carbapenem derivatives three hr after the initiation of the test is summarized in Table 6.
# (§2) 1.5 g of a kidney acetone powder (manufactured by Sigma) Porcine Type II (Lot. 33H7225) was suspended in 100 ml of 50 mM Tris-HCl buffer (pH 7.0) containing 20% butanol, and the suspension was stirred at 5° C. for 48 hr. The suspension was then dialyzed against 50 mM Tris-HCl buffer (pH 7.0) (a cellulose tube 30/32 Viskase Sales Corp.) until the odor of butanol disappeared, thereby removing butanol. The dialyzate is centrifuged at 10000×g (KUBOTA 6800) for 20 min, and the supernatant was obtained as a partially purified DHP-I. This partially purified DHP-I was subdivided and stored at -80° C. The above procedure was repeated, except that 1.5 g of Mouse (Lot. 23F8105) was used. Thus, a partially purified DHP-I was prepared and stored.
# (§3) For the carbapenem as the substrate agent, a solution (2000 μg (potency)/ml) was prepared using sterilized, purified water. For the sample solution, the carbapenem (2000 μg (potency)/ml) solution was added to the partially purified DHP-I of each animal to a final concentration of 100 μg (potency)/ml). For the blank, 50 mM Tris-HCl buffer (pH 7.0) was used instead of the partially purified DHP-I of each animal. The reaction was allowed to proceed at 37° C. for 3 hr, and a given amount of the reaction mixture was sampled. Methanol in the same amount as the sampled reaction mixture was added under ice cooling to terminate the reaction. The reaction mixture was filtered through a filter (Sanprep LCR 13-LH manufactured by MILLIPORE) and subjected to HPLC (column: CAPCELL PACK C18SG120, manufactured by Shiseido Co., Ltd.; detection: UV; mobile layer: acetonitrile/10 mM aqueous acetic acid solution) to determined the residue (%).
# (§4) Residue (%)=(Sample Peak Area/Blank Peak Area)×100
# [2] = Stability against DHP-I (mouse); assay type: in vitro ADME; details: kidney dhp-i, 100 μg (potency)/ml, 37° C., pH 7.0, read-out: residue (%) of the carbapenem derivative
# Procedure: as §1, §2, §3, §4
# E. cloacae G-0008 = test: Antimicrobial activity (minimum inhibitory concentration); assay type: cell-based; details: Enterobacter cloacae, G0008
# Procedure: (§5) For representative compounds among the novel carbapenem derivatives of the present invention, the minimum inhibitory concentration (MIC, μg/ml) against various pathogenic bacteria was measured in accordance with a method described in CHEMOTHERAPY, Vol. 16, No. 1, 99 (1968).
# P. vulgaris GN76 = test: as above; assay type: cell-based; details: Proteus vulgaris
# Procedure: as §5
# K. pneumoniae PCI602 = test: as above; assay type: cell-based; details: Klebsiella pneumoniae
# Procedure: as §5
# C. freundii GN346 = test: as above; assay type: cell-based; details: Citrobacter freundii
# Procedure: as §5
# M. morganii 1510 = test: as above; assay type: cell-based; details: Morganella morganii
# Procedure: as §5
# E. coli NIHJ JC-2 = test: as above; assay type: cell-based; details: Escherichia coli, NIHJJC2
# Procedure: as §5
# Ps. aeruginosa GN10362 = test: as above; assay type: cell-based; details: Pseudomonas aeruginosa
# Procedure: as §5
# S. aureus M126 = test: as above; assay type: cell-based; details: Staphylococcus aureus; S. aureus M126, highly meticillin-resistant strain
# Procedure: as §5
# S. aureus 209P JC-1 = test: as above; assay type: cell-based; details: Staphylococcus aureus
# Procedure: as §5
# E. coli GN206 = test: as above; assay type: cell-based; details: Escherichia coli
# Procedure: as §5
# S. marcescens No. 1 = test: as above; assay type: cell-based; details: Serratia marcescens
# Procedure: as §5
# [3] = P. vulgaris GN76, read-out: MIC
# [4] = Ps. aeruginosa GN10362, read-out: MIC
Compound,remaining at 3 h [1] [%],remaining at 3 h [2] [%],MIC (E. cloacae G-0008) [µg/mL],MIC (P. vulgaris GN76; [3]) [µg/mL],MIC (K. pneumoniae PCI602) [µg/mL],MIC (C. freundii GN346) [µg/mL],MIC (M. morganii 1510) [µg/mL],MIC (E. coli NIHJ JC-2) [µg/mL],MIC (Ps. aeruginosa GN10362; [4]) [µg/mL],MIC (S. aureus M126) [µg/mL],MIC (S. aureus 209P JC-1) [µg/mL],MIC (E. coli GN206) [µg/mL],MIC (S. marcescens No. 1) [µg/mL],MIC (P. vulgaris GN76; GN76) [µg/mL],MIC (Ps. aeruginosa GN10362; GN10362) [µg/mL]
"CC(=N)N1CC[C@H](SC2=C(C(=O)O)N3C(=O)[C@H]([C@@H](C)O)[C@H]3C2)C1 [Compound B, Panipenem, reference compound]",19,28,0.2,3.13,0.2,0.2,0.78,0.1,12.5,25,< 0.025,0.2,0.39,–,–
"C[C@@H](O)[C@H]1C(=O)N2C(C(=O)O)=C(S[C@@H]3CN[C@H](Cc4cn5c[n+](CC(N)=O)cc5s4)C3)[C@H](C)[C@H]12 [Ex. 26, (1R,5S,6S)-2-[(3S,5S)-5-[6-(Carbamoylmethyl)imidazo[5,1-b]thiazolium-2-yl]methylpyrrolidin-3-yl]thio-6-((1R)-1-hydroxyethyl)-1-methylcarbapen-2-em-3-carboxylic acid iodide]",95,90,0.05,0.39,0.1,0.05,0.39,0.05,0.78,6.25,< 0.025,0.05,0.2,–,–
"C[C@@H](O)[C@H]1C(=O)N2C(C(=O)O)=C(S[C@@H]3CN[C@H](C(=O)N(C)C)C3)[C@H](C)[C@H]12 [Compound C, Meropenem]",71,18,–,–,–,–,–,–,–,–,–,–,–,–,–
"C[C@@H](O)[C@H]1C(=O)N2C(C(=O)O)=C(SCCN=CN)C[C@H]12 [Compound A, Imipenem, reference compound]",24,0.6,0.1,–,0.39,0.1,0.78,0.1,–,50,< 0.025,0.1,0.39,3.13,1.56
